# Test results as given in patent US6462045B1, “Method of treating pulmonary hypertension” (Orion Corporation, priority 1998, dated 2002).
# Legend:
# [1] = test system: patient with pulmonary hypertension; assay: Experiment 2: levosimendan infusion for 5.5 hrs in a patient with pulmonary hypertension, mean pulmonary artery pressure; format: in vivo, human
# Method: Levosimendan was administered by infusion (0.1-0.4 μg/kg/min) to a patient with pulmonary hypertension in amounts of 0.1, 0.2 and 0.4 μg/kg/min for 5.5 hrs. At 0.25 h the infusion rate was 0.1 μg/kg/min, at 2.00 h the infusion rate was increased to 0.2 μg/kg/min and at 4.5 h the infusion rate was increased to 0.4 μg/kg/min. The change in the mean pulmonary artery pressure (MPAP) was determined.
# Table 1. The change of mean pulmonary artery pressure (NPAP) during levosimendan infusion. 0.25 h infusion rate 0.1 μg/kg/min, 2.00 h infusion rate 0.2 μg/kg/min, 4.5 h infusion rate 0.4 μg/kg/min.
# patients = assay: Experiment 1: levosimendan infusion for 24 hrs in 95 patients, change in mean pulmonary artery pressure; format: in vivo, human; details: infusion 0.05, 0.1, 0.2, 0.4 and 0.6 μg/kg/min for 24 hrs, FIG. 1
# Method: Levosimendan (LS) was administered by infusion (0.05-0.6 μg /kg/min) to totally 95 patients (n=14-23 per group) in amounts of 0.05, 0.1, 0.2, 0.4 and 0.6 μg/kg/min for 24 hrs. The change in the mean pulmonary artery pressure was determined.
# ------ is placebo, --O-- is vehicle, --[…]-- is dobutamine,
# — is LS 0.05 μg/kg/min, —C— is LS 0.1 μg/kg/min, —□— is LS 0.2 μg/kg/min,
# —⋄— is LS 0.4 μg/kg/min, —Δ— is LS 0.6 μg/kg/min
smiles,measurement,setting,value
"CC1CC(=O)NN=C1c1ccc(NN=C(C#N)C#N)cc1 (single isomer, unassigned; (-)) [levosimendan, (−)-[[4-(1,4,5,6-tetrahydro-4-methyl-6-oxo-3-pyridazinyl)phenyl]hydrazono]propanedinitrile]",change in the mean pulmonary artery pressure (MPAP),"[1]; infusion 0.1, 0.2 and 0.4 μg/kg/min for 5.5 hrs, one patient with pulmonary hypertension",able to significantly lower pulmonary artery pressure
same,MPAP,[1]; time 0 h (before the 0.1 μg/kg/min infusion rate at 0.25 h),41 mmHg
same,MPAP,"[1]; time 0.75 h, infusion rate 0.1 μg/kg/min",42 mmHg
same,MPAP,"[1]; time 1.25 h, infusion rate 0.1 μg/kg/min",42 mmHg
same,MPAP,"[1]; time 1.75 h, infusion rate 0.1 μg/kg/min",39 mmHg
same,MPAP,"[1]; time 2.50 h, infusion rate 0.2 μg/kg/min",34 mmHg
same,MPAP,"[1]; time 3.00 h, infusion rate 0.2 μg/kg/min",35 mmHg
same,MPAP,"[1]; time 3.50 h, infusion rate 0.2 μg/kg/min",35 mmHg
same,MPAP,"[1]; time 4.00 h, infusion rate 0.2 μg/kg/min",32 mmHg
same,MPAP,"[1]; time 5.00 h, infusion rate 0.4 μg/kg/min",27 mmHg
same,MPAP,"[1]; time 5.50 h, infusion rate 0.4 μg/kg/min",29 mmHg
same,change in the mean pulmonary artery pressure,patients,able to significantly lower pulmonary artery pressure
